# From patent publication USRE48461E1, “Modulation of androgen receptor expression” (Ionis Pharmaceuticals, Inc., priority 2012, dated 2021)
# Oligonucleotides are written 5' to 3', each unit as a sugar letter and its base; * is a phosphorothioate linkage, no mark a phosphodiester; rarer units and linkages stand in square brackets, end groups in braces. Plain capitals give the bases only. e = 2'-O-(2-methoxyethyl) (MOE); k = constrained ethyl (cEt); [5mC] = 5-methylcytosine; d = 2'-deoxy (DNA)
# Assays:
# AR mRNA [1] = assay: Antisense inhibition of human AR in HuVEC cells, single concentration (electroporation, qRT-PCR RTS3559); assay type: cell-based
# Method in brief: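 HuVEC cells electroporated with antisense oligonucleotides at a single concentration. AR mRNA quantified by qRT-PCR using human primer-probe set RTS3559 and normalised to total RNA content by RIBOGREEN.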
# AR mRNA [2] = assay: Dose-dependent antisense inhibition of human AR in HuVEC cells (electroporation, qRT-PCR RTS3559, IC50); assay type: cell-based; conditions: HuVEC
# Method in brief: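 HuVEC cells dosed with antisense oligonucleotides by electroporation and treated approximately 16 hours. AR mRNA quantified by real-time qPCR with primer probe set RTS3559 and normalised to total RNA by RIBOGREEN; IC50 from dose-response.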
# [3] = Table 23, 500 nM oligonucleotide, electroporation, approximately 24 hours, relative to untreated control
# [4] = Table 34, electroporation, approximately 16 hours
# [5] = Table 31, electroporation, approximately 16 hours
# [6] = Table 20, 500 nM oligonucleotide, electroporation, approximately 24 hours, relative to untreated control
# [7] = Table 32, electroporation, approximately 16 hours
# [8] = Table 29, electroporation, approximately 16 hours
# [9] = 500 nM ASO, electroporation, ~24 h, Table 1
# [10] = Table 30, electroporation, approximately 16 hours
substance,measurement,setting,value
584125 (kG*k[5mC]*k[5mC]*dA*dT*dG*dA*dG*dA*d[5mC]*dA*dG*d[5mC]*kT*kT*kT; antisense) [compound 584125],% inhibition,AR mRNA [1]; [3],35%
same,"percent inhibition of AR, 46.9 nM",AR mRNA [2]; [4],12%
same,"percent inhibition of AR, 187.5 nM",AR mRNA [2]; [4],12%
same,"percent inhibition of AR, 750.0 nM",AR mRNA [2]; [4],47%
same,"percent inhibition of AR, 3000.0 nM",AR mRNA [2]; [4],76%
same,IC50,AR mRNA [2]; [4],720 nM
583809 (antisense kT*kG*kT*d[5mC]*d[5mC]*dT*dT*dG*dG*dA*dG*dG*dA*kA*kG*kT) [compound 583809],% inhibition,"AR mRNA [1]; Table 19, 500 nM oligonucleotide, electroporation, approximately 24 hours, relative to untreated control",45%
same,"percent inhibition of AR, 46.9 nM",AR mRNA [2]; [5],13%
same,"percent inhibition of AR, 187.5 nM",AR mRNA [2]; [5],37%
same,"percent inhibition of AR, 750.0 nM",AR mRNA [2]; [5],68%
same,"percent inhibition of AR, 3000.0 nM",AR mRNA [2]; [5],81%
same,IC50,AR mRNA [2]; [5],360 nM
583881 (k[5mC]*k[5mC]*kT*dT*dT*dG*dG*dT*dG*dT*dA*dA*d[5mC]*k[5mC]*kT*k[5mC]; antisense) [compound 583881],% inhibition,AR mRNA [1]; [6],47%
same,"percent inhibition of AR, 46.9 nM",AR mRNA [2]; [7],28%
same,"percent inhibition of AR, 187.5 nM",AR mRNA [2]; [7],50%
same,"percent inhibition of AR, 750.0 nM",AR mRNA [2]; [7],85%
same,"percent inhibition of AR, 3000.0 nM",AR mRNA [2]; [7],91%
same,IC50,AR mRNA [2]; [7],150 nM
583635 (antisense k[5mC]*kT*kG*dG*d[5mC]*dT*d[5mC]*d[5mC]*dG*d[5mC]*dA*d[5mC]*dT*k[5mC]*kG*kG) [compound 583635],% inhibition,"AR mRNA [1]; 500 nM ASO, ~24 h, Table 17",50%
same,"percent inhibition of AR, 46.9 nM",AR mRNA [2]; [8],35%
same,"percent inhibition of AR, 187.5 nM",AR mRNA [2]; [8],56%
same,"percent inhibition of AR, 750.0 nM",AR mRNA [2]; [8],69%
same,"percent inhibition of AR, 3000.0 nM",AR mRNA [2]; [8],78%
same,IC50,AR mRNA [2]; [8],130 nM
549347 (k[5mC]*kT*kT*d[5mC]*dG*d[5mC]*dG*d[5mC]*dA*d[5mC]*dG*d[5mC]*dT*k[5mC]*kT*kG; antisense) [compound 549347],% inhibition,AR mRNA [1]; [9],84%
same,percent inhibition of AR,"AR mRNA [2]; 55.6 nM, ~16 h, Table 4",15%
same,percent inhibition of AR,"AR mRNA [2]; 166.7 nM, ~16 h, Table 4",37%
same,percent inhibition of AR,"AR mRNA [2]; 500.0 nM, ~16 h, Table 4",62%
same,percent inhibition of AR,"AR mRNA [2]; 1500.0 nM, ~16 h, Table 4",71%
same,IC50,"AR mRNA [2]; ~16 h, Table 4",357 nM
583642 (antisense kA*kG*kT*dG*dT*d[5mC]*d[5mC]*dA*d[5mC]*dT*dG*dA*dA*kG*kT*kA) [compound 583642],% inhibition,"AR mRNA [1]; 500 nM ASO, ~24 h, Table 17",42%
same,"percent inhibition of AR, 46.9 nM",AR mRNA [2]; [10],18%
same,"percent inhibition of AR, 187.5 nM",AR mRNA [2]; [10],35%
same,"percent inhibition of AR, 750.0 nM",AR mRNA [2]; [10],67%
same,"percent inhibition of AR, 3000.0 nM",AR mRNA [2]; [10],74%
same,IC50,AR mRNA [2]; [10],460 nM
583855 (k[5mC]*k[5mC]*kT*dT*dT*dG*d[5mC]*dA*dT*dT*d[5mC]*dG*dG*k[5mC]*k[5mC]*kA; antisense) [compound 583855],% inhibition,AR mRNA [1]; [6],44%
same,"percent inhibition of AR, 46.9 nM",AR mRNA [2]; [7],22%
same,"percent inhibition of AR, 187.5 nM",AR mRNA [2]; [7],50%
same,"percent inhibition of AR, 750.0 nM",AR mRNA [2]; [7],81%
same,"percent inhibition of AR, 3000.0 nM",AR mRNA [2]; [7],91%
same,IC50,AR mRNA [2]; [7],180 nM
583719 (antisense kG*kT*kA*dG*dG*dT*d[5mC]*dT*dT*dG*dG*dA*d[5mC]*kG*kG*k[5mC]) [compound 583719],% inhibition,"AR mRNA [1]; 500 nM ASO, ~24 h, Table 18",36%
same,"percent inhibition of AR, 46.9 nM",AR mRNA [2]; [5],22%
same,"percent inhibition of AR, 187.5 nM",AR mRNA [2]; [5],46%
same,"percent inhibition of AR, 750.0 nM",AR mRNA [2]; [5],65%
same,"percent inhibition of AR, 3000.0 nM",AR mRNA [2]; [5],72%
same,IC50,AR mRNA [2]; [5],320 nM
583564 (antisense kG*k[5mC]*kT*dT*d[5mC]*d[5mC]*dT*d[5mC]*d[5mC]*dG*dA*dG*dT*k[5mC]*kT*kT) [compound 583564],% inhibition,"AR mRNA [1]; 500 nM ASO, ~24 h, Table 16",45%
same,"percent inhibition of AR, 46.9 nM",AR mRNA [2]; [8],16%
same,"percent inhibition of AR, 187.5 nM",AR mRNA [2]; [8],33%
same,"percent inhibition of AR, 750.0 nM",AR mRNA [2]; [8],55%
same,"percent inhibition of AR, 3000.0 nM",AR mRNA [2]; [8],74%
same,IC50,AR mRNA [2]; [8],520 nM
549332 (kG*k[5mC]*kG*d[5mC]*dT*d[5mC]*dT*dG*dA*d[5mC]*dA*dG*d[5mC]*k[5mC]*kT*k[5mC]; antisense) [compound 549332],% inhibition,AR mRNA [1]; [9],84%
same,percent inhibition of AR,"AR mRNA [2]; 55.6 nM, ~16 h, Table 4",35%
same,percent inhibition of AR,"AR mRNA [2]; 166.7 nM, ~16 h, Table 4",57%
same,percent inhibition of AR,"AR mRNA [2]; 500.0 nM, ~16 h, Table 4",79%
same,percent inhibition of AR,"AR mRNA [2]; 1500.0 nM, ~16 h, Table 4",79%
same,IC50,"AR mRNA [2]; ~16 h, Table 4",104 nM
583709 (antisense kG*k[5mC]*kT*dT*dG*dG*d[5mC]*dT*dG*dA*dA*dT*d[5mC]*kT*kT*k[5mC]) [compound 583709],% inhibition,"AR mRNA [1]; 500 nM ASO, ~24 h, Table 18",39%
same,"percent inhibition of AR, 46.9 nM",AR mRNA [2]; [10],8%
same,"percent inhibition of AR, 187.5 nM",AR mRNA [2]; [10],50%
same,"percent inhibition of AR, 750.0 nM",AR mRNA [2]; [10],70%
same,"percent inhibition of AR, 3000.0 nM",AR mRNA [2]; [10],84%
same,IC50,AR mRNA [2]; [10],290 nM
549414 (kG*kT*kT*d[5mC]*dA*dT*dT*d[5mC]*dG*dA*dA*dG*dT*kT*k[5mC]*kA) [compound 549414],% inhibition,"AR mRNA [1]; 500 nM ASO, electroporation, ~24 h, Table 2",81%
same,percent inhibition of AR,"AR mRNA [2]; 55.6 nM, ~16 h, Table 4",21%
same,percent inhibition of AR,"AR mRNA [2]; 166.7 nM, ~16 h, Table 4",35%
same,percent inhibition of AR,"AR mRNA [2]; 500.0 nM, ~16 h, Table 4",53%
same,percent inhibition of AR,"AR mRNA [2]; 1500.0 nM, ~16 h, Table 4",76%
same,IC50,"AR mRNA [2]; ~16 h, Table 4",366 nM
569220 (antisense eA*kT*kG*kG*dT*dT*dG*dA*dT*dT*dT*dA*kA*kT*kG*eG) [compound 569220],% inhibition,"AR mRNA [1]; 1,000 nM ASO, ~24 h, Table 13",58%
same,percent inhibition of AR,"AR mRNA [2]; 31.25 nM, ~16 h, Table 14",11%
same,percent inhibition of AR,"AR mRNA [2]; 62.5 nM, ~16 h, Table 14",29%
same,percent inhibition of AR,"AR mRNA [2]; 125.0 nM, ~16 h, Table 14",34%
same,percent inhibition of AR,"AR mRNA [2]; 500.0 nM, ~16 h, Table 14",59%
same,percent inhibition of AR,"AR mRNA [2]; 1000.0 nM, ~16 h, Table 14",78%
same,IC50,"AR mRNA [2]; ~16 h, Table 14",275 nM
583834 (kA*kG*k[5mC]*dT*dG*dT*dT*d[5mC]*d[5mC]*d[5mC]*d[5mC]*dT*dG*kG*kA*k[5mC]; antisense) [compound 583834],% inhibition,AR mRNA [1]; [6],52%
same,"percent inhibition of AR, 46.9 nM",AR mRNA [2]; [7],34%
same,"percent inhibition of AR, 187.5 nM",AR mRNA [2]; [7],54%
same,"percent inhibition of AR, 750.0 nM",AR mRNA [2]; [7],73%
same,"percent inhibition of AR, 3000.0 nM",AR mRNA [2]; [7],84%
same,IC50,AR mRNA [2]; [7],130 nM
584044 (k[5mC]*k[5mC]*k[5mC]*dT*dT*d[5mC]*dA*dG*d[5mC]*dG*dG*d[5mC]*dT*k[5mC]*kT*kT; antisense) [compound 584044],% inhibition,"AR mRNA [1]; Table 22, 500 nM oligonucleotide, electroporation, approximately 24 hours, relative to untreated control",29%
same,"percent inhibition of AR, 46.9 nM",AR mRNA [2]; [4],23%
same,"percent inhibition of AR, 187.5 nM",AR mRNA [2]; [4],30%
same,"percent inhibition of AR, 750.0 nM",AR mRNA [2]; [4],51%
same,"percent inhibition of AR, 3000.0 nM",AR mRNA [2]; [4],78%
same,IC50,AR mRNA [2]; [4],440 nM
584069 (k[5mC]*kA*kG*dA*dG*dT*d[5mC]*dA*dT*d[5mC]*d[5mC]*d[5mC]*dT*kG*k[5mC]*kT; antisense) [compound 584069],% inhibition,AR mRNA [1]; [3],36%
same,"percent inhibition of AR, 46.9 nM",AR mRNA [2]; [4],18%
same,"percent inhibition of AR, 187.5 nM",AR mRNA [2]; [4],40%
same,"percent inhibition of AR, 750.0 nM",AR mRNA [2]; [4],63%
same,"percent inhibition of AR, 3000.0 nM",AR mRNA [2]; [4],82%
same,IC50,AR mRNA [2]; [4],300 nM
583738 (antisense kG*kT*kT*d[5mC]*dT*dG*dG*dA*dT*d[5mC]*dA*d[5mC]*dT*kT*k[5mC]*kG) [compound 583738],% inhibition,"AR mRNA [1]; 500 nM ASO, ~24 h, Table 18",36%
same,"percent inhibition of AR, 46.9 nM",AR mRNA [2]; [10],16%
same,"percent inhibition of AR, 187.5 nM",AR mRNA [2]; [10],40%
same,"percent inhibition of AR, 750.0 nM",AR mRNA [2]; [10],56%
same,"percent inhibition of AR, 3000.0 nM",AR mRNA [2]; [10],71%
same,IC50,AR mRNA [2]; [10],510 nM
